Test results from patent US10143731B2, “Peptides and combination of peptides for use in immunotherapy against various cancers” (immatics biotechnologies GmbH, priority 2015, dated 2018).

Assays:
CD8+ T cells = assay: In vitro T-cell priming assay (aAPCs loaded with peptide/MHC and anti-CD28, multimer staining readout); type: cell-based, human; details: for Wells positive [%]: in vitro immunogenicity of HLA class I peptides; for Wells (in vitro immunogenicity of HLA class I peptides): CD8+ T cells of healthy donors, three stimulation cycles with peptide/MHC and anti-CD28 coated beads
Procedure: In an aspect, the peptides are pre-screened for immunogenicity before being included in the warehouse. By way of example, and not limitation, the immunogenicity of the peptides included in the warehouse is determined by a method comprising in vitro T-cell priming through repeated stimulations of CD8+ T cells from healthy donors with artificial antigen presenting cells loaded with peptide/MHC complexes and anti-CD28 antibody.
In order to obtain information regarding the immunogenicity of the TUMAPs of the present invention, the inventors performed investigations using an in vitro T-cell priming assay based on repeated stimulations of CD8+ T cells with artificial antigen presenting cells (aAPCs) loaded with peptide/MHC complexes and anti-CD28 antibody.
In order to perform in vitro stimulations by artificial antigen presenting cells loaded with peptide-MHC complex (pMHC) and anti-CD28 antibody, the inventors first isolated CD8+ T cells from fresh HLA-A*02 leukapheresis products via positive selection using CD8 microbeads (Miltenyi Biotec, Bergisch-Gladbach, Germany) of healthy donors obtained from the University clinics Mannheim, Germany, after informed consent.
PBMCs and isolated CD8+ lymphocytes were incubated in T-cell medium (TCM) until use consisting of RPMI-Glutamax (Invitrogen, Karlsruhe, Germany) supplemented with 10% heat inactivated human AB serum (PAN-Biotech, Aidenbach, Germany), 100 U/ml Penicillin/100 μg/ml Streptomycin (Cambrex, Cologne, Germany), 1 mM sodium pyruvate (CC Pro, Oberdorla, Germany), 20 μg/ml Gentamycin (Cambrex). 2.5 ng/ml IL7 (PromoCell, Heidelberg, Germany) and 10 U/ml IL-2 (Novartis Pharma, Nürnberg, Germany) were also added to the TCM at this step.
Generation of pMHC/anti-CD28 coated beads, T-cell stimulations and readout was performed in a highly defined in vitro system using four different pMHC molecules per stimulation condition and 8 different pMHC molecules per readout condition.
The purified co-stimulatory mouse IgG2a anti human CD28 Ab 9.3 (Jung et al., 1987) was chemically biotinylated using Sulfo-N-hydroxysuccinimidobiotin as recommended by the manufacturer (Perbio, Bonn, Germany). Beads used were 5.6 μm diameter streptavidin coated polystyrene particles (Bangs Laboratories, Illinois, USA).
pMHC used for positive and negative control stimulations were A*0201/MLA-001 (peptide […] (SEQ ID NO. 303) from modified Melan-A/MART-1) and A*0201/DDX5-001 ([…] from DDX5, SEQ ID NO. 304), respectively.
800.000 beads/200 μl were coated in 96-well plates in the presence of 4×12.5 ng different biotin-pMHC, washed and 600 ng biotin anti-CD28 were added subsequently in a volume of 200 μl. Stimulations were initiated in 96-well plates by co-incubating 1×10^6 CD8+ T cells with 2×10^5 washed coated beads in 200 μl TCM supplemented with 5 ng/ml IL-12 (PromoCell) for 3 days at 37° C. Half of the medium was then exchanged by fresh TCM supplemented with 80 U/ml IL-2 and incubating was continued for 4 days at 37° C. This stimulation cycle was performed for a total of three times. For the pMHC multimer readout using 8 different pMHC molecules per condition, a two-dimensional combinatorial coding approach was used as previously described (Andersen et al., 2012) with minor modifications encompassing coupling to 5 different fluorochromes. Finally, multimeric analyses were performed by staining the cells with Live/dead near IR dye (Invitrogen, Karlsruhe, Germany), CD8-FITC antibody clone SK1 (BD, Heidelberg, Germany) and fluorescent pMHC multimers. For analysis, a BD LSRII SORP cytometer equipped with appropriate lasers and filters was used. Peptide specific cells were calculated as percentage of total CD8+ cells. Evaluation of multimeric analysis was done using the FlowJo software (Tree Star, Oregon, USA). In vitro priming of specific multimer+CD8+ lymphocytes was detected by comparing to negative control stimulations.

HLA-A*02 = assay: MHC binding assay by UV-ligand exchange and beta2m ELISA, HLA-A*02; set-up: species or system human; details: binding to HLA-A*02 ranged by peptide exchange yield (UV-ligand exchange, β2m ELISA)
Source text: (§1) MHC Binding Assays Candidate peptides for T cell based therapies according to the present invention were further tested for their MHC binding capacity (affinity). The individual peptide-MHC complexes were produced by UV-ligand exchange, where a UV-sensitive peptide is cleaved upon UV-irradiation, and exchanged with the peptide of interest as analyzed. Only peptide candidates that can effectively bind and stabilize the peptide-receptive MHC molecules prevent dissociation of the MHC complexes. To determine the yield of the exchange reaction, an ELISA was performed based on the detection of the light chain (β2m) of stabilized MHC complexes. The assay was performed as generally described in Rodenko et al. (Rodenko et al., 2006).
(§2) 96 well MAXISorp plates (NUNC) were coated over night with 2 ug/ml streptavidin in PBS at room temperature, washed 4× and blocked for 1 h at 37° C. in 2% BSA containing blocking buffer. Refolded HLA-A*02:01/MLA-001 monomers served as standards, covering the range of 15-500 ng/ml. Peptide-MHC monomers of the UV-exchange reaction were diluted 100 fold in blocking buffer. Samples were incubated for 1 h at 37° C., washed four times, incubated with 2 ug/ml HRP conjugated anti-β2m for 1 h at 37° C., washed again and detected with TMB solution that is stopped with […]. Absorption was measured at 450 nm. Candidate peptides that show a high exchange yield (preferably higher than 50%, most preferred higher than 75%) are generally preferred for a generation and production of antibodies or fragments thereof, and/or T cell receptors or fragments thereof, as they show sufficient avidity to the MHC molecules and prevent dissociation of the MHC complexes.

HLA-A2 = HLA-A2 (Homo sapiens, UniProt P04439, D140Y/D185E/D98H/E176V/E277Q/G131W/G231S/I119V/I121R/I166T/I218V/L10V/L300P/L318F/N151K/N90K/P208A/P217A/Q86G/Q94H/R138H/R169H/T345S); details: prediction in US20150306197 A1 / US20110142842 A1, not tested further; cited from earlier work
HLA-A*24 = assay: MHC binding assay by UV-ligand exchange and beta2m ELISA, HLA-A*24; set-up: species or system human; details: binding to HLA-A*24 ranged by peptide exchange yield (UV-ligand exchange, β2m ELISA)
Source text: as §1, §2

[1] = tested on: advanced non-resectable HCC; details: patients with advanced non-resectable HCC; cited from earlier work

Peptide exchange (HLA-A*02) | Compound | Wells positive [%] (CD8+ T cells) | other results
++++ (> = 75% = ++++) | 249 (GLCERLVSL; listed as Homo sapiens) [compound 249] | + (<20% = +) | 
++++ (> = 75% = ++++) | 14 (ILAKDLFEI; listed as Homo sapiens) [compound 14] |  | 
 | KLFTSVFGV (listed as Homo sapiens) [SEQ ID No. 305] |  | predicted binding to HLA-A2 / HLA-A*0201 (HLA-A2): binding to HLA-A*0201
++++ (> = 75% = ++++) | 147 (YLMDDTVEI; listed as Homo sapiens) [compound 147] |  | 
++++ (> = 75% = ++++) | 248 (YLDRFLAGV; listed as Homo sapiens) [compound 248] |  | 
++++ (> = 75% = ++++) | 133 (ALLPRLHQL; listed as Homo sapiens) [compound 133] |  | 
++++ (> = 75% = ++++) | 95 (GLLGSLFFL; listed as Homo sapiens) [compound 95] |  | 
++++ (> = 75% = ++++) | 51 (LLFSRLCGA; listed as Homo sapiens) [compound 51] |  | 
++++ (> = 75% = ++++) | 92 (GLLFSLRSV; listed as Homo sapiens) [compound 92] |  | 
 | 167 (NYINRILKL; listed as Homo sapiens) [compound 167] | + (<20% = +) | Peptide exchange (HLA-A*24): ++++ (> = 75% = ++++)
++++ (> = 75% = ++++) | 129 (RLQDILWFL; listed as Homo sapiens) [compound 129] |  | 
++++ (> = 75% = ++++) | 229 (AILAHLNTV; listed as Homo sapiens) [compound 229] |  | 
++++ (> = 75% = ++++) | 125 (SLADYEHFV; listed as Homo sapiens) [compound 125] |  | 
++++ (> = 75% = ++++) | 153 (FISERVEVV; listed as Homo sapiens) [compound 153] |  | 
++++ (> = 75% = ++++) | 245 (SLLDLPLSL; listed as Homo sapiens) [compound 245] |  | 
++++ (> = 75% = ++++) | 84 (ALCPRIHEV; listed as Homo sapiens) [compound 84] |  | 
 | 165 (DYTTWTALL; listed as Homo sapiens) [compound 165] | + (<20% = +) | Peptide exchange (HLA-A*24): ++++ (> = 75% = ++++)
++++ (> = 75% = ++++) | 3 (KLEENGDLYL; listed as Homo sapiens) [compound 3] |  | 
++++ (> = 75% = ++++) | 112 (SLGKFTFDV; listed as Homo sapiens) [compound 112] |  | 
 | 158 (HYSQELSLLYL; listed as Homo sapiens) [compound 158] | + (<20% = +) | Peptide exchange (HLA-A*24): ++++ (> = 75% = ++++)

Peptide exchange (HLA-A*02) | Compound | Wells positive [%] (CD8+ T cells) | other results
 | CNC(=O)c1cc(Oc2ccc(NC(=O)Nc3ccc(Cl)c(C(F)(F)F)c3)cc2)ccn1 [Sorafenib] |  | increase of survival [1]: about 3 months
 | 163 (DYLKGLASF; listed as Homo sapiens) [compound 163] | + (<20% = +) | Peptide exchange (HLA-A*24): ++++ (> = 75% = ++++)
++++ (> = 75% = ++++) | 258 (LLSERFINV; listed as Homo sapiens) [compound 258] |  | 
++++ (> = 75% = ++++) | 16 (YTLDIPVLFGV; listed as Homo sapiens) [compound 16] |  | 
++++ (> = 75% = ++++) | 257 (GLYTDPCGV; listed as Homo sapiens) [compound 257] |  | 
 | 204 (TYELRYFQI; listed as Homo sapiens) [compound 204] | + (<20% = +) | Peptide exchange (HLA-A*24): ++++ (> = 75% = ++++)
 | 301 (AYKPGALTF; listed as Homo sapiens) [compound 301] |  | Wells (in vitro immunogenicity of HLA class I peptides) (CD8+ T cells): + (<20% = +)
++++ (> = 75% = ++++) | 34 (FLLATEVVTV; listed as Homo sapiens) [compound 34] |  | 
++++ (> = 75% = ++++) | 4 (KLMPGTYTL; listed as Homo sapiens) [compound 4] | + (<20% = +) | 
++++ (> = 75% = ++++) | 126 (QMFQYFITV; listed as Homo sapiens) [compound 126] |  | 
 | 159 (LYNKGFIYL; listed as Homo sapiens) [compound 159] | ++++ (> = 70% = ++++) | Peptide exchange (HLA-A*24): ++++ (> = 75% = ++++)
++++ (> = 75% = ++++) | 12 (GLLPLLHRA; listed as Homo sapiens) [compound 12] | ++++ (> = 70% = ++++) | 
++++ (> = 75% = ++++) | 1 (LLYPEPWSV; listed as Homo sapiens) [compound 1] |  | 
 | 300 (AYVLRLETL; listed as Homo sapiens) [compound 300] |  | Wells (in vitro immunogenicity of HLA class I peptides) (CD8+ T cells): + (<20% = +)
 | 18 (ILLDLTDNRL; listed as Homo sapiens) [compound 18] | + (<20% = +) | 
 | 141 (FLDKVLVAA; listed as Homo sapiens) [compound 141] | + (<20% = +) | 
 | 149 (ILNTHITEL; listed as Homo sapiens) [compound 149] | + (<20% = +) | 
 | 293 (FLVDGSWSI; listed as Homo sapiens) [compound 293] |  | Wells (in vitro immunogenicity of HLA class I peptides) (CD8+ T cells): + (<20% = +)
 | 26 (ALQEELTEL; listed as Homo sapiens) [compound 26] | + (<20% = +) | 
 | 291 (KLDETGNSL; listed as Homo sapiens) [compound 291] |  | Wells (in vitro immunogenicity of HLA class I peptides) (CD8+ T cells): + (<20% = +)
